# Data taken from patent US20180071268A1, “COMPOSITIONS AND METHODS FOR TREATING MICROBIOTA-RELATED PSYCHOTROPIC CONDITIONS AND DISEASES” (priority 2013, published 2018).
# Key:
# Assay type in all cases: in vivo, human
# [1] = system: Autistic Spectrum Disorder(ASD); assay: Treatment of child with Autistic Spectrum Disorder with Aztreonam, then added Vancomycin (case report); details: Aztreonam 50 mg 3 times daily; about two weeks after starting
# Protocol: A child who was diagnosed with development of Autistic Spectrum Disorder(ASD) with change in bowel habit, withdrawal from ‘society’ and loss of vocabulary/words/vocalizing ability as well as reduced socialisation and eye contact was treated with Aztreonam 50 mg 3 times daily.
# [2] = system: ASD; assay: Treatment of person with ASD, chronic constipation and abdominal discomfort with oral Vancomycin (case report)
# Protocol: A patient was brought by their parent for consultation. They had been suffering from ASD since early childhood but also had chronic constipation and abdominal discomfort. The treatment was focussed on the constipation problem as this was the major component of their complaints when interviewed. They were commenced on to 50 mg Vancomycin twice daily for the first week increasing to 250 mg 3 times daily as an oral dose which is not absorbed. […] However they also noticed a change in behaviour of the child. They were much calmer, with their low vocabulary and inability to complain formally, they were no longer screaming and vocalising their pain using repetitive movements. […] This is both with verbal and non-verbal communication.
# [3] = system: OCD; assay: Exemplary treatment of OCD in adult with rifaximin (case report)
# Protocol: A married office worker had suffered with OCD since childhood. Having been treated with various pharmacologic agents through life their behaviour patterns were largely controlled except for one behaviour of needing to check gas outlets and powerpoints every night in case their children were hurt or damaged overnight by some unforseen accident. This continued to be a ‘sleep-draining’ issue not controllable by Zoloft, anfranil and other drugs.
# They were commenced on rifaximin 500 mg capsules twice daily for the first week, then 1 g twice daily thereafter.
# They remain on long term rifaximin.
# [4] = system: Autism Spectrum Disorder (ASD); assay: Treatment of twin sisters with Autism Spectrum Disorder and OCD component with oral Gentamicin, then added Rifaximin (case report); details: oral Gentamicin 80 mg 3 times daily in capsules; within three weeks
# Protocol: Twin sisters who were diagnosed with Autism Spectrum Disorder (ASD) at different levels of reading capability, writing and comprehension in Grade 3 and 4, together with abdominal cramping and alternating hard/soft defecation changes were started on oral Gentamicin 80 mg 3 times daily in capsules. […] After three weeks Rifaximin was added to the mix of drugs at a dose of 500 mg twice daily and the patients were further observed with a combination of Gentamicin and Rifaximin.
# [5] = oral Vancomycin, at four week interview
compound,measurement,setting,value
C[C@H]1[C@H](NC(=O)/C(=N\OC(C)(C)C(=O)O)c2csc(N)n2)C(=O)N1S(=O)(=O)O [Aztreonam],eye contact,[1],greater eye contact
same,loose motions,[1],reduction in the loose motions
same,socialisation with the other children,[1],greater socialisation
same,word power,[1],no increase in word power
CN[C@H](CC(C)C)C(=O)N[C@H]1C(=O)N[C@@H](CC(N)=O)C(=O)N[C@H]2C(=O)N[C@H]3C(=O)N[C@H](C(=O)N[C@H](C(=O)O)c4cc(O)cc(O)c4-c4cc3ccc4O)[C@H](O)c3ccc(c(Cl)c3)Oc3cc2cc(c3O[C@@H]2O[C@H](CO)[C@@H](O)[C@H](O)[C@H]2O[C@H]2C[C@](C)(N)[C@H](O)[C@H](C)O2)Oc2ccc(cc2Cl)[C@H]1O [Vancomycin],abdominal discomfort initially after start of treatment,"[2]; oral Vancomycin 50 mg twice daily first week increasing to 250 mg 3 times daily, initially",some increase in abdominal discomfort
same,side effects from the medication,"[2]; oral Vancomycin 750 mg to 1 g, nine months of treatment",without any undue side effects
same,"communication, verbal and non-verbal","[2]; oral Vancomycin, after four months",better communication between the parents and the child
same,behaviour of the child,[2]; [5],much calmer
same,constipation and pain,[2]; [5],markedly improved
same,repetitive movements,[2]; [5],came down quite markedly
same,pain,"[2]; oral Vancomycin, within a few days onwards",progressively disappeared
same,bowel function (evacuation frequency),"[2]; oral Vancomycin, within a few days, before: once every three to four days",daily or twice daily and even three times daily evacuation
CO[C@H]1/C=C/O[C@@]2(C)Oc3c(C)c(O)c4c(O)c(c5c(nc6cc(C)ccn65)c4c3C2=O)NC(=O)/C(C)=C\C=C\[C@H](C)[C@H](O)[C@@H](C)[C@@H](O)[C@@H](C)[C@H](OC(C)=O)[C@@H]1C [rifaximin],persistence of the improvement during monitoring,[3]; next 3 months of monitoring their behaviour,almost universal
same,OCD behaviour: need to check gas outlets and powerpoints every night,"[3]; person, rifaximin 500 mg capsules twice daily first week, then 1 g twice daily",absence of the need to check the gas outlets and powerpoints
same,time until absence of the checking behaviour was noticed,"[3]; person, rifaximin 500 mg twice daily first week, then 1 g twice daily",≤ 10 days
Gentamicin,episodes of OCD behaviour,[4],marked reduction in the number of episodes of OCD behaviour
